Active and inactive are the calls of the source. The rule behind the calls is not given here.
Legend:
HCC = assay: Inhibition of clonogenicity in human HCC cells assessed as decrease in number of colonies at 3 to 18 nM incubated for 1 to 2 weeks by optical microscopy analysis; format: functional, cell-based; conditions: dose 3-18 nM, time 1-2 weeks
SK-HEP1 [1] = assay: Induction of cell cycle arrest in human SK-Hep1 cells assessed as accumulation at S phase at 40 nM treated for 24 hrs by PI staining based flow cytometry (reference value: 24.98 %); format: functional
[2] = Induction of apoptosis in rat HSC-T6 cells assessed as viable cells at 10 nM pretreated with TGFbeta-1 for 1 day followed by compound addition and measured after 24 hrs by flow cytometry (reference value: 97.5 %); format: functional; conditions: read-out: Activity
SK-HEP1 [3] = assay: Inhibition of cell invasion in human SK-HEP1 cells at 3 to 18 nM incubated for 24 hrs by matrigel based assay; format: functional; conditions: dose 3-18 nM
[4] = Induction of apoptosis in rat HSC-T6 cells assessed as necrotic cells at 40 nM pretreated with TGFbeta-1 for 1 day followed by compound addition and measured after 24 hrs by flow cytometry (reference value: 0.56 %); format: functional
SK-HEP1 [5] = assay: Inhibition of cell migration in human SK-HEP1 cells incubated for 24 hrs by scratch wound healing assay; format: functional, cell-based; conditions: dose 3-18 nM, DDE = dose-dependent effect
[6] = Induction of apoptosis in rat HSC-T6 cells assessed as late apoptotic cells at 40 nM pretreated with TGFbeta-1 for 1 day followed by compound addition and measured after 24 hrs by flow cytometry (reference value: 1.76 %); format: functional
[7] = Induction of apoptosis in rat HSC-T6 cells assessed as viable cells at 80 nM pretreated with TGFbeta-1 for 1 day followed by compound addition and measured after 24 hrs by flow cytometry (reference value: 97.5 %); format: functional; conditions: read-out: Activity
Huh-7 [8] = assay: Inhibition of cell invasion in human Huh-7 cells at 3 to 18 nM incubated for 24 hrs by matrigel based assay; format: functional; conditions: dose 3-18 nM
HSC-T6 = assay: Suppression of TGF-beta-1-stimulated rat HSC-T6 cells activation assessed as reduction in Col-1 levels preincubated with TGFbeta-1 followed by compound addition and measured after 24 to 48 hrs by ELISA; format: functional, cell-based; conditions: dose 10-80 nM, time 24-48 hrs, DDE = dose-dependent effect
SK-HEP1 [9] = assay: Induction of apoptosis in human SK-Hep1 cells assessed as cell shrinkage incubated for 24 hrs by Giemsa staining based microscopy; format: functional; conditions: dose 12-60 nM, DDE = dose-dependent effect
[10] = Induction of apoptosis in rat HSC-T6 cells assessed as late apoptotic cells at 10 nM pretreated with TGFbeta-1 for 1 day followed by compound addition and measured after 24 hrs by flow cytometry (reference value: 1.76 %); format: functional
Huh-7 [11] = assay: Induction of apoptosis in human Huh-7 cells assessed as necrotic cells at 80 nM incubated for 24 hrs by annexin V-FITC/PI staining flow cytometry (reference value: 1.08 %); format: functional
Huh-7 [12] = assay: Inhibition of cell migration in human Huh-7 cells at 3 to 18 nM incubated for 24 hrs by crystal violet staining based transwell assay; format: functional; conditions: dose 3-18 nM
Huh-7 [13] = assay: Induction of cell cycle arrest in human Huh-7 cells assessed as accumulation at G1 phase at 10 nM treated for 24 hrs by PI staining based flow cytometry (reference value: 60.77 %); format: functional
SK-HEP1 [14] = assay: Induction of apoptosis in human SK-Hep1 cells assessed as viable cells at 10 nM incubated for 24 hrs by annexin V-FITC/PI staining flow cytometry (reference value: 97.8 %); format: functional; conditions: read-out: Activity
SK-HEP1 [15] = assay: Induction of apoptosis in human SK-Hep1 cells assessed as early apoptotic cells at 40 nM incubated for 24 hrs by annexin V-FITC/PI staining flow cytometry (reference value: 0.30 %); format: functional
SK-HEP1 [16] = assay: Induction of apoptosis in human SK-Hep1 cells assessed as chromatin agglutination incubated for 24 hrs by Giemsa staining based microscopy; format: functional, cell-based; conditions: dose 12-60 nM, DDE = dose-dependent effect
Huh-7 [17] = assay: Induction of cell cycle arrest in human Huh-7 cells assessed as accumulation at G2 phase at 80 nM treated for 24 hrs by PI staining based flow cytometry (reference value: 15.90 %); format: functional
[18] = Induction of apoptosis in rat HSC-T6 cells assessed as viable cells at 40 nM pretreated with TGFbeta-1 for 1 day followed by compound addition and measured after 24 hrs by flow cytometry (reference value: 97.5 %); format: functional; conditions: read-out: Activity
Huh-7 [19] = assay: Induction of apoptosis in human Huh-7 cells assessed as necrotic cells at 10 nM incubated for 24 hrs by annexin V-FITC/PI staining flow cytometry (reference value: 1.08 %); format: functional
Huh-7 [20] = assay: Induction of cell cycle arrest in human Huh-7 cells assessed as accumulation at G1 phase at 40 nM treated for 24 hrs by PI staining based flow cytometry (reference value: 60.77 %); format: functional
[21] = Induction of apoptosis in rat HSC-T6 cells assessed as necrotic cells at 10 nM pretreated with TGFbeta-1 for 1 day followed by compound addition and measured after 24 hrs by flow cytometry (reference value: 0.56 %); format: functional
Huh-7 [22] = assay: Induction of cell cycle arrest in human Huh-7 cells assessed as accumulation at S phase at 40 nM treated for 24 hrs by PI staining based flow cytometry (reference value: 23.33 %); format: functional
SK-HEP1 [23] = assay: Induction of cell cycle arrest in human SK-Hep1 cells assessed as accumulation at G1 phase at 10 nM treated for 24 hrs by PI staining based flow cytometry (reference value: 58.47 %); format: functional
SK-HEP1 [24] = assay: Induction of cell cycle arrest in human SK-Hep1 cells assessed as accumulation at G2 phase at 80 nM treated for 24 hrs by PI staining based flow cytometry (reference value: 16.55 %); format: functional

SMILES	inhibition (HCC)	Activity (SK-HEP1 [1]) [%]	viability at 0.01 µM [2] [%]	inhibition (SK-HEP1 [3])	Activity [4] [%]	inhibition (SK-HEP1 [5])	Activity [6] [%]	viability at 0.08 µM [7] [%]	inhibition (Huh-7 [8])	Activity (HSC-T6)	Activity (SK-HEP1 [9])	Activity [10] [%]	Activity (Huh-7 [11]) [%]	inhibition (Huh-7 [12])	Activity (Huh-7 [13]) [%]	viability at 0.01 µM (SK-HEP1 [14]) [%]	Activity (SK-HEP1 [15]) [%]	Activity (SK-HEP1 [16])	Activity (Huh-7 [17]) [%]	viability at 0.04 µM [18] [%]	also measured
CC(=O)Oc1ccc2[nH]c3c(c2c1)CCN1C(=O)c2cc(F)cc(F)c2N(c2cccc(F)c2)C31 (configuration not stated)	Active	4.18	89.9	Active	1.29	Dde	12.8	41.7	Active	Dde	Dde	8.67	9.88	Active	51.9	86.7	8.25	Dde	74.38	85.6	Activity (Huh-7 [19]): 1.51%; Activity (Huh-7 [20]): 28.25%; Activity [21]: 0.93%; Activity (Huh-7 [22]): 21.48%; Activity (SK-HEP1 [23]): 62.52%; Activity (SK-HEP1 [24]): 76.35%
O=C1c2cc(F)cc(F)c2N(c2cccc(F)c2)C2c3[nH]c4ccc(O)cc4c3CCN12 (configuration not stated)	Active	4.11	94	Active	1.11	Dde	10.4	83.8	Active	Dde	Dde	5.1	9.82	Active	46.78	92.9	8.02	Dde	78.5	98.3	Activity (Huh-7 [19]): 1.53%; Activity (Huh-7 [20]): 15.01%; Activity [21]: 0.8%; Activity (Huh-7 [22]): 21.24%; Activity (SK-HEP1 [23]): 54.93%; Activity (SK-HEP1 [24]): 83.92%

From ChEMBL document CHEMBL5154935, “Design, Synthesis, and Biological Evaluation of Novel Evodiamine Derivatives as Potential Antihepatocellular Carcinoma Agents” (J Med Chem, 2022)
